Results on five compounds are retold here after patent US11395857B2, “Radiolabeled melanocortin 1 receptor-specific alpha-melanocyte-stimulating hormone analogues for imaging or therapy” (PROVINCIAL HEALTH SERVICES AUTHORITY, priority 2018, dated 2022).

Each structure is given as a SMILES string.

A short description of series [1]: In vivo stability in mouse urine at 1 h p.i. (radio-HPLC). More on the design: species or system C57BL/6J mice. As to the method: All animal experiments were conducted in according to the guidelines established by Canadian Council on Animal Care and approved by Animal Ethics Committee of the University of British Columbia. Mice were housed under pathogen-free conditions and kept on twelve hours light and twelve hours dark cycle in the Animal Research Centre, BC Cancer Research Centre, Vancouver, Canada. C57BL/6J mice were anesthetized by inhalation with 2% isoflurane in 2.0 L/min of oxygen, and approximately 4-6 MBq of [^68Ga]Ga-CCZ01099 or [^68Ga]Ga-CCZ01048 was injected intravenously. The mice were allowed to recover and roam freely in their cages. At 1 h post-injection (p.i.), the mice were euthanized by CO2 inhalation and their urine was collected and analyzed on HPLC for metabolite using the conditions described above. In vivo urine stability of [^68Ga]Ga-CCZ01099 and [^68Ga]Ga-CCZ01048 were 34.0±10.4% and ≥98.0% (n≥3), respectively.
The in vivo stability tests in mouse urine were performed as described in Example 1. […] With systematic reduction in the number of N-methylations for the αMSH analogues, a decrease in in vivo stability was observed.

Series [2] relates to B16F10 cells. Briefly: In vitro competition binding assay on B16-F10 cells vs 125I-[Nle4,D-Phe7]-alpha-MSH. Details: species or system Mus musculus. To be noted: natGa-coupled peptides. As to the method:
The B16-F10 melanoma cell line (Mus musculus) used in the tumor model was obtained commercially from ATTC (CRL-6475). Cells were cultured in Dulbecco's Modified Eagle's Medium (DMEM, StemCell Technologies) supplemented by 10% FBS, 100 U/mL penicillin and 100 μg/mL streptomycin at 37° C. in a humidified incubator containing 5% CO2. Cells grown to roughly 90% confluence were washed with sterile phosphate-buffered saline (lx PBS, pH 7.4), followed by trypsinization. For tumour implantation, C57BL/6J mice were anesthetized by inhalation with 2% isoflurane in 2.0 L/min of oxygen, 2×10^6 B16-F10 cells were inoculated subcutaneously on right dorsal flank. Mice were imaged or used in biodistribution studies once the tumour reached 6-8 mm in diameter.
In vitro competitive binding assays were performed using B16-F10 cells and the cell culture method described in Example 1. 500,000 cells/well were seeded onto a 24 well poly-D-lysine coated plate (Corning) overnight. Growth media was removed, and reaction buffer containing 4.8 mg/mL HEPES, […] penicillin/[…] and 2 mg/mL BSA was added, and allowed to incubate with cells at 37° C. for at least an hour. Peptide of interest and ^125I-[Nle^4, D-Phe^7]-alpha-MSH (Perkin Elmer) were added to each well. The binding of ^125I-[Nle^4, D-Phe^7]-alpha-MSH was competed by non-radioactive gallium coupled CCZ01103, CCZ01104, CCZ01105, CCZ01106 or CCZ01114 at increasing concentrations from 0.5 pmol/mL to […]. The reaction mixture was incubated at 25° C. with moderate shaking for 1 h. After the incubation, the reaction mixture was removed, and cells were washed with ice-cold PBS twice. 0.25% Trypsin solution was used to harvest the cells and radioactivity was measured using a Wallac WIZARD2 gamma counter (Perkin Elmer).

Series [3] has as its system SK-MEL-1 human melanoma. Briefly: SPECT/CT imaging of mice bearing SK-MEL-1 human melanoma. The class given is in vivo, NRG mice. As to conditions: 24 h p.i. The protocol: SPECT/CT imaging experiments were conducted using the same conditions as described in Example 3. […] (FIG. 6).
Series [4] has as its system B16-F10 tumours. As to conditions: Zhang et al., 2017 Theranostics; cited from earlier work.

Broadly, the Ki is the equilibrium dissociation constant of an inhibitor or competing ligand from its target. As to `CCCC[C@H](NC(=O)CN1CCC(NC(=O)CN2CCN(CC(=O)O)CCN(CC(=O)O)CCN(CC(=O)O)CC2)CC1)C(=O)N[C@H]1CC(=O)NCCCC[C@@H](C(N)=O)N(C)C(=O)[C@H](Cc2c[nH]c3ccccc23)NC(=O)[C@H](CCCNC(=N)N)N(C)C(=O)[C@@H](Cc2ccccc2)NC(=O)[C@H](Cc2c[nH]cn2)NC1=O` [CCZ01106, DOTA-Pip-Nle-cyclo[Asp-His-D-Phe-(N-Me-Arg)-Trp-(N-Me-Lys)]—NH2], the “In vivo urine stability, intact tracer” value in series [1] turned out to be 82.5±1.8%. Also, the “Binding affinity (comparison among the five analogues)” value in series [2] is “highest binding affinity”. Besides, in series [2] (n ≥ 3, read-out: Inhibition constants (Ki) on B16F10 cells), the Ki is 1.5 ± 0.1 nM.

For the compound `CCCC[C@H](NC(=O)CN1CCC(NC(=O)CN2CCN(CC(=O)O)CCN(CC(=O)O)CCN(CC(=O)O)CC2)CC1)C(=O)N[C@H]1CC(=O)NCCCC[C@@H](C(N)=O)NC(=O)[C@H](Cc2c[nH]c3ccccc23)NC(=O)[C@H](CCCNC(=N)N)N(C)C(=O)[C@@H](Cc2ccccc2)NC(=O)[C@H](Cc2c[nH]cn2)NC1=O` [CCZ01114, DOTA-Pip-Nle-cyclo[Asp-His-D-Phe-(N-Me-Arg)-Trp-Lys]-NH2], in series [2], the “Binding affinity (comparison among the five analogues)” value is “highest binding affinity”.

`CCCC[C@H](NC(=O)CN1CCC(NC(=O)[C@H](CCCCNC(=O)CN2CCN(CC(=O)O)CCN(CC(=O)O)CCN(CC(=O)O)CC2)NC(=O)CNC(=O)CCCc2ccc(I)cc2)CC1)C(=O)N[C@H]1CC(=O)NCCCC[C@@H](C(N)=O)N(C)C(=O)[C@H](Cc2c[nH]c3ccccc23)NC(=O)[C@H](CCCNC(=N)N)N(C)C(=O)[C@@H](Cc2ccccc2)NC(=O)[C@H](Cc2c[nH]cn2)NC1=O` [CCZ01148]: the “Tumour uptake / retention in SPECT images” value in series [3] is on record as “showed improved the tumour retention”.

Turning to `CCCC[C@H](NC(=O)CN1CCC(NC(=O)[C@H](CCCCNC(=O)CN2CCN(CC(=O)O)CCN(CC(=O)O)CCN(CC(=O)O)CC2)NC(=O)CNC(=O)CCCc2ccc(C)cc2)CC1)C(=O)N[C@H]1CC(=O)NCCCC[C@@H](C(N)=O)N(C)C(=O)[C@H](Cc2c[nH]c3ccccc23)NC(=O)[C@H](CCCNC(=N)N)N(C)C(=O)[C@@H](Cc2ccccc2)NC(=O)[C@H](Cc2cnc[nH]2)NC1=O` [CCZ01158], in series [3], the “Blood uptake in SPECT images” value was “Lower blood uptake was observed” and the “Tumour uptake / retention in SPECT images” value is “showed improved the tumour retention”.

Regarding `CCCC[C@H](NC(=O)CN1CCC(NC(=O)CN2CCN(CC(=O)O)CCN(CC(=O)O)CCN(CC(=O)O)CC2)CC1)C(=O)N[C@H]1CC(=O)NCCCC[C@@H](C(N)=O)NC(=O)[C@H](Cc2c[nH]c3ccccc23)NC(=O)[C@H](CCCNC(=N)N)NC(=O)[C@@H](Cc2ccccc2)NC(=O)[C@H](Cc2c[nH]cn2)NC1=O` [[^68Ga]Ga-CCZ01048, metal not drawn, reference compound], the “In vivo urine stability, intact tracer” value in series [1] is reported as at least 98.0%. In addition, the “Thyroid uptake on PET images” value in series [4] was “thyroid uptake was clearly observed”.
